Patent US20240124434A1, “ATF6 INHIBITORS AND USES THEREOF” (Altos Labs, Inc., priority 2018, published 2024)
≈ marks a conversion by molar mass, not a printed value. Like-named read-outs stand apart in the source and are kept apart here.

Columns and labels:
[1] = Kinetic solubility (nephelometry); type: physicochemical; conditions: aqueous buffer, kinetic from dmso stock; PBS pH 7.4, 1% DMSO, 1 hour at 37° C., light scattering at 625 nm
Protocol: Concentration (μM) was then calculated by segmental regression. Amiodarone (#A8423 Aldrich) was used as positive control.

CYP2D6 = CYP2D6 (Homo sapiens (Human), UniProt P10635); assay: CYP inhibition in human liver microsomes; conditions: read-out: CYP-2D6; human liver microsomes; probe substrate dextromethorphan
Protocol: (§1) CYP inhibition by test compounds in human liver microsomes (HLM) for seven major CYP450 isoforms CYP1A2, CYP2C9, CYP2D6, CYP2B6, CYP2C8, CYP2C19 and CYP3A4 were assessed. […] 50 μM phenacetin, 2 μM midazolam, 5 μM diclofenac, 50 μM mephenytoin, 80 μM bupropion, and 5 μM dextromethorphan were used as probe substrates of CYP1A2, CYP3A4, CYP2C9, CYP2C19, CYP2B6, and CYP2D6, respectively. The incubation times were 20 min for […], CYP2D6, CYP2C9, CYP2B6, and CYP2C8; 40 min for CYP2C19; and 10 min for CYP 3A4. Following incubations, the reactions were terminated with acetonitrile containing internal standard. The samples were centrifuged and the supernatants were analyzed for the formation of metabolites (1-hydroxymidazolam (CYP3A4), 4-hydroxydiclofenac (CYP2C9), 4-hydroxymephenytoin (CYP2C19) and dextrorphan (CYP2D6), hydroxybupropion (CYP2B6), acetaminophen (CYP1A2), desethylamodiaquine (CYP2C8)) by LC/MS/MS.

CYP2C19 = CYP2C19 (Homo sapiens (Human), UniProt P33261); assay: CYP inhibition in human liver microsomes; conditions: read-out: CYP-2C19; human liver microsomes; probe substrate mephenytoin
Protocol: as §1

CYP2C9 = CYP2C9 (Homo sapiens (Human), UniProt P11712); assay: CYP inhibition in human liver microsomes; conditions: read-out: CYP-2C9; human liver microsomes; probe substrate diclofenac
Protocol: as §1

CYP3A4 = CYP3A4 (Homo sapiens (Human), UniProt P08684); assay: CYP inhibition in human liver microsomes; conditions: read-out: CYP-3A4; human liver microsomes; probe substrate midazolam
Protocol: as §1

CYP2B6 = CYP2B6 (Homo sapiens (Human), UniProt P20813); assay: CYP inhibition in human liver microsomes; conditions: read-out: CYP-2B6; human liver microsomes; probe substrate bupropion
Protocol: as §1

CYP2C8 = CYP2C8 (Homo sapiens (Human), UniProt P10632); assay: CYP inhibition in human liver microsomes; conditions: read-out: CYP-2C8, metabolite desethylamodiaquine
Protocol: as §1

[2] = In vitro microsomal stability, mouse liver microsomes; type: in vitro ADME; conditions: for Rem. @ mLM (%): remaining fraction after 30 min, 1 μM compound, 0.5 mg/mL mouse liver microsomes, 1 mM NADPH
Protocol: (§2) Compounds were incubated at a final concentration of 1 μM with 0.5 mg/mL human liver microsomes (hLM) (#HMMCPL; Thermo), mouse liver microsomes (mLM) (#MSMCPL; Thermo) or rat liver microsomes (rLM) (#RTMCPL; Thermo) and 1 mM reduced dihydronicotinamide-adenine dinucleotide phosphate (NADPH) (#N1630; Sigma) in 100 mM phosphate buffer (pH 7.4) at 37° C. The reactions were terminated at 0, 5, 15 and 30 min by the addition of cold acetonitrile containing 50 ng/mL propranolol as an internal standard. […] Verapamil hydrochloride (#V4369 Aldrich) was used as a positive control in all studies.

ATF6 = assay: ERSE ATF6-luciferase reporter assay (thapsigargin-induced ER stress); type: cell-based, human; conditions: Homo sapiens, U2OS, thapsigargin-induced ER stress, U2-OS ATF6 luc reporter cells; for inhibition at 1 µM: 8 h, 8 hr
[3] = In vitro microsomal stability, rat liver microsomes; type: in vitro ADME; conditions: for microsomal CLint at […], 1 µM / half-life at 1 μM / half-life at […], 1 µM: pH 7.4, rat liver microsomes; for microsomal CLint at […], 1 µM: intrinsic clearance, read-out: Clint @ rLM; for half-life at 1 μM / half-life at […], 1 µM: rat, read-out: T1/2 @ rLM; for Rem. @ rLM (%): remaining fraction after 30 min, 1 μM compound, 0.5 mg/mL rat liver microsomes, 1 mM NADPH
Protocol: as §2

[4] = In vitro microsomal stability, human liver microsomes; type: in vitro ADME; conditions: for Rem. @ hLM (%): remaining fraction after 30 min, 1 μM compound, 0.5 mg/mL human liver microsomes, 1 mM NADPH
Protocol: as §2

[5] = mouse, in vivo, po, 10 mg/kg
Protocol: (§3) Tested compounds were formulated at 1 mg/mL as a dosing solution for oral administration in vehicle A: 10% dimethylacetamide (DMAC), 20% propylene glycol, and 40% PEG-400 or vehicle B: 10% Kolliphor® EL and 10% ethanol (EtOH).
(§4) Animals were acclimated for a minimum period of 4 days upon arrival at the testing facility.
(§5) At the day of study, mice were weighed, identified by marking the tail with numbers using a non-toxic permanent marker, and designated into ten experimental groups (n=3 per group).
(§6) Non-dosed mice were used to collect samples of zero time points. […] Blood samples were centrifuged immediately at 9,000 g at 4° C. for 5 minutes and then plasmas were separated. Plasma samples were placed into individually labeled cryovials and stored in a −80° C. freezer until LC/MS/MS bioanalysis.
(§7) The bioanalysis of plasma samples was conducted with a QTRAP 4500 triple quadrupole mass spectrometer (Applied Biosystems SCIEX) in the positive ion mode and interfaced with an Ekspert Ultra LC100 UPLC System (Eksigent). Calibration standards (0.01 to 10 μM) and QCs (0.02, 0.2 and 2.0 μM) were prepared from naïve mouse plasma in parallel with mouse plasma study samples (60 μL) by precipitation with three volumes of ice cold internal standard solution (acetonitrile containing 20 μM of theophylline). The precipitated samples were centrifuged at 6,100 g for 30 min. Following centrifugation, an aliquot of each supernatant was transferred to an autosampler plate and diluted with two volumes of aqueous mobile phase (0.1% formic acid in water). Samples were injected onto a reverse phase analytical column (YMC Triart C18; 2.0×50 mm; 1.9 μm; YMC CO) and eluted with a gradient of 0.1% formic acid in Acetonitrile. Assayed test compound and internal standards were monitored by a multiple reaction monitoring (MRM) experiment using an Analyst software (v1.6.2, Applied Biosystems SCIEX). Quantitation was conducted using a MultiQuant software (v2.1, Applied Biosystems SCIEX) and the resulting calibration curve was fitted with a linear regression and 1/x weighting. The lower limits of quantitation were 1<LLQ <5 ng/mL.

in vivo = conditions: Balb/c, mouse, po, 10 mg/kg
Protocol: as §3, §4, §5, §6, §7

[6] = mouse, mouse liver microsomes, pH 7.4, read-out: T1/2 @ mLM
[7] = pH 7.4, intrinsic clearance, mouse liver microsomes, read-out: Clint @ mLM
[8] = read-out: Inh. ATF6-Luc @ 1 μM [%], 1 μM test compound
[9] = read-out: IC50 ATF6-Luc reporter [μM], dose-response 30 μM to 1 nM
[10] = human, human liver microsomes, pH 7.4, read-out: T1/2 @ hLM
[11] = pH 7.4, intrinsic clearance, human liver microsomes, read-out: Clint @ hLM
[12] = 1 μM test compound, read-out: Inh. ATF6-Luc @ 1 μM [%]
[13] = dose-response 30 μM to 1 nM, read-out: IC50 ATF6-Luc reporter

Sequence of CYP2B6 (P20813 whole entry): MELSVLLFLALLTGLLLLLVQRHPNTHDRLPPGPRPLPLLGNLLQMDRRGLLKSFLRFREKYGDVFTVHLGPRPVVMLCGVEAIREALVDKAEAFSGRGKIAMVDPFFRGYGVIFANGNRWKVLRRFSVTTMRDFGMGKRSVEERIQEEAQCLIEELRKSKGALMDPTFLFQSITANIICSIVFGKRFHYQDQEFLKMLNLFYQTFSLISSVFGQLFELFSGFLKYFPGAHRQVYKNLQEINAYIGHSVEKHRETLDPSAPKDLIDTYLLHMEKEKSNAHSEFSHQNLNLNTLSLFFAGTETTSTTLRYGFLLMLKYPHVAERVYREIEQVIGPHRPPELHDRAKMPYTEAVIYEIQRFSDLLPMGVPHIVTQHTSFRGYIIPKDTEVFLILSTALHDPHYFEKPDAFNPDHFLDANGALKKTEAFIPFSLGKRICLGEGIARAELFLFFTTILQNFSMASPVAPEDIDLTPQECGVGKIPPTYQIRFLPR
Sequence of CYP2D6 (P10635 whole entry, canonical isoform): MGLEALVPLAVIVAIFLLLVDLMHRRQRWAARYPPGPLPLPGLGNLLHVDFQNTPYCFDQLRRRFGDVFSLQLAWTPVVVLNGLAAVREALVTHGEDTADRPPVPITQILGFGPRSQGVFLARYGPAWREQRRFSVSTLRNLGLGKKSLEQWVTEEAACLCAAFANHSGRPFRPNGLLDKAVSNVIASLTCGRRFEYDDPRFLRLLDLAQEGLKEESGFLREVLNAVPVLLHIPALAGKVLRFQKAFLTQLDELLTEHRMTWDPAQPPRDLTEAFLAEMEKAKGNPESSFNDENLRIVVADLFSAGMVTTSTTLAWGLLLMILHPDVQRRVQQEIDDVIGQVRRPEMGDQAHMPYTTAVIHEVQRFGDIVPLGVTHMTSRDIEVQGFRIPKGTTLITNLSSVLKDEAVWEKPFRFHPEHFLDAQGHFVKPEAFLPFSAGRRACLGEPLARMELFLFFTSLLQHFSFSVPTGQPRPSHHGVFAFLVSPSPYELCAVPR
Sequence of CYP3A4 (P08684 whole entry): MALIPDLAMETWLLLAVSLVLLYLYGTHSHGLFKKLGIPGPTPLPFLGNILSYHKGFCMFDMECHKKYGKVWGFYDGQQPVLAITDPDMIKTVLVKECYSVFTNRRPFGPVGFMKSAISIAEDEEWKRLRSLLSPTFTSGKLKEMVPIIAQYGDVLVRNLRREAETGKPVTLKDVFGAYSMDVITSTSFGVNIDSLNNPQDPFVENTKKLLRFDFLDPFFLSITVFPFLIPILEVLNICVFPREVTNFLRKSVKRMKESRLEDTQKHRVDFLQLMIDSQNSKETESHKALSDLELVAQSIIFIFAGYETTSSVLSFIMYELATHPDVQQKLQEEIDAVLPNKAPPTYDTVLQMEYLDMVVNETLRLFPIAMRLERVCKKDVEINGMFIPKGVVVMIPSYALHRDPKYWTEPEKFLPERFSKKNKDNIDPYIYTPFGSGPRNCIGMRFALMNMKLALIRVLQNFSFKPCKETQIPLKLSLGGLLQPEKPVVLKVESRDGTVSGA
Sequence of CYP2C8 (P10632 whole entry): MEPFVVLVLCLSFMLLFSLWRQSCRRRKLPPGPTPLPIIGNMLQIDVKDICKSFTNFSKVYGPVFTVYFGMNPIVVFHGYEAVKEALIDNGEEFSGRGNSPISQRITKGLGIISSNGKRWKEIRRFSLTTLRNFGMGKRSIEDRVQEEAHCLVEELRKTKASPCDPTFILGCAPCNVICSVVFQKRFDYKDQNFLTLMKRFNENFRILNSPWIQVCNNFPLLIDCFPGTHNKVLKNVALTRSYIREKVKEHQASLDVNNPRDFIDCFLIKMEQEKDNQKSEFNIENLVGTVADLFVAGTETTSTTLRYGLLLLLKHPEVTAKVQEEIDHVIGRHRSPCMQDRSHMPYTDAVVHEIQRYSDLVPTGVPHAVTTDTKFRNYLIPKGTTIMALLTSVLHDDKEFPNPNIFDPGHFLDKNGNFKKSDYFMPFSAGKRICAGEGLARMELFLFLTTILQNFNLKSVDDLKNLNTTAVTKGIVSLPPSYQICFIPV
Sequence of CYP2C9 (P11712 whole entry): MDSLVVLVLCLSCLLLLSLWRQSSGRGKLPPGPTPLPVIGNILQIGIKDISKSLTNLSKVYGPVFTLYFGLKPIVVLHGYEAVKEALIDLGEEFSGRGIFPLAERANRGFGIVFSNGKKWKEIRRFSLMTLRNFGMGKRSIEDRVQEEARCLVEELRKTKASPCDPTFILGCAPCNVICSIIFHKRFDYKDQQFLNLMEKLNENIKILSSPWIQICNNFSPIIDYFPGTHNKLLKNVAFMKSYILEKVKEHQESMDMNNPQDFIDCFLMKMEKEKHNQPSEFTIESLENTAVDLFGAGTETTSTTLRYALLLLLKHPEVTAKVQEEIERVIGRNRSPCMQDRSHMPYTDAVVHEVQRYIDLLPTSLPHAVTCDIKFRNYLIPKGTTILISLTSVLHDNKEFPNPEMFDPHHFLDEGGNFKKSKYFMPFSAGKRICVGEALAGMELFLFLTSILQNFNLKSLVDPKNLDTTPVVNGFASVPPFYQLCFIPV
Sequence of CYP2C19 (P33261 whole entry): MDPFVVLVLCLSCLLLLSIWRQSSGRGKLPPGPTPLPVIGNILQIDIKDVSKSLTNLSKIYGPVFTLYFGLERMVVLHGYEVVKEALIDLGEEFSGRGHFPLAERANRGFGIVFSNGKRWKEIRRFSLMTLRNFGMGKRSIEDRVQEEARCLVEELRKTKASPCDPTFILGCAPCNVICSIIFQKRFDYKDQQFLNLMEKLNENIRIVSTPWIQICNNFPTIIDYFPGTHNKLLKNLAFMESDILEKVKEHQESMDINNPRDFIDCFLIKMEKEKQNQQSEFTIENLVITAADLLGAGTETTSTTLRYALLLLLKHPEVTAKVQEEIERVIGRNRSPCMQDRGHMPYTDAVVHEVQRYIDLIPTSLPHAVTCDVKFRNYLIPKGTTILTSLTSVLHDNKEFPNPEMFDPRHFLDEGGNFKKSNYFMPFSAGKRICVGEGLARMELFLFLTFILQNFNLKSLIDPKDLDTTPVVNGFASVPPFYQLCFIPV

Row | Compound | solubility kinetic at 1 h [1] [µM] | IC50 (CYP2D6) [µM] | IC50 (CYP2C19) [µM] | IC50 (CYP2C9) [µM] | IC50 (CYP3A4) [µM] | IC50 (CYP2B6) [µM] | IC50 (CYP2C8) [µM] | microsomal CLint at […], 1 µM [2, 7] [µL/min/mg] | Rem. @ mLM (%) [2] [%] | inhibition at 1 µM (ATF6; [8]) [%] | IC50 (ATF6; [9]) [µM] | microsomal CLint at […], 1 µM [3] [µL/min/mg] | half-life at 1 μM [3] [min] | Rem. @ rLM (%) [3] [%] | half-life at 1 μM [4, 10] [min] | microsomal CLint at […], 1 µM [4, 11] [µL/min/mg] | Rem. @ hLM (%) [4] [%] | half-life at 1 μM [2, 6] [min] | inhibition at 1 µM (ATF6; [12]) [%] | IC50 (ATF6; [13]) [µM] | other results
1 | Cc1nn([C@H](C)c2ccc(C(F)(F)F)cc2C(F)(F)F)cc1NC(=O)c1cc(-c2ccccn2)on1 [Compound 99, (R)—N-(1-(1-(2,4-bis(trifluoromethyl)phenyl)ethyl)-3-methyl-1H-pyrazol-4-yl)-5-(pyridin-2-yl)isoxazole-3-carboxamide] | 2.34 (≈ 1.19 µg/mL) | 32 | 8.8 | 2.5 | > 50 | 4.8 | 1 | 85.2 | 29.2 | 25 to 50 | 1 to 10 | 28.3 | 49 | 60.9 | 35.4 | 39.2 | 49.2 |  |  |  | half-life at […], 1 µM [2, 6]: 16.3 min
2 | C[C@H](c1ccc(C(F)(F)F)cc1C(F)(F)F)n1cc(NC(=O)c2cn(-c3ccccn3)nn2)cn1 [Compound 121, (R)—N-(1-(1-(2,4-bis(trifluoromethyl)phenyl)ethyl)-1H-pyrazol-4-yl)-1-(pyridine-2-yl)-1H-1,2,3-triazole-4-carboxamide] | 3.51 (≈ 1.74 µg/mL) | 35.5 | 2.9 | > 45.9 | > 50 | 23.6 | 30.5 | 26.4 | 62.5 | 25 to 50 | < 1 | 23.9 | 58.1 | 64.5 |  | 10.4 | 84.4 | 52.4 |  |  | half-life at […], 1 µM [4, 10]: 133 min
3 | C[C@H](c1ccc(C(F)(F)F)cc1C(F)(F)F)n1cc(NC(=O)c2cc(-c3ncccn3)on2)cn1 [Compound 101, (R)—N-(1-(1-(2,4-bis(trifluoromethyl)phenyl)ethyl)-1H-pyrazol-4-yl)-5-(pyrimidin-2-yl)isoxazole-3-carboxamide] | 2.34 (≈ 1.16 µg/mL) |  |  |  |  |  |  | 37.7 | 51.17 |  |  | 28.2 | 49.1 | 60.62 | 36 | 38.5 | 52.49 | 36.7 | > 50 | < 1 | 
4 | O=C(Nc1cnn(Cc2ccc(C(F)(F)F)cc2C(F)(F)F)c1)c1cc(-c2cccs2)on1 [Compound 14, N-(1-(2,4-bis(trifluoromethyl)benzyl)-1H-pyrazol-4-yl)-5-(thiophen-2-yl)isoxazole-3-carboxamide] | 35.2 (≈ 17.1 µg/mL) |  |  |  |  |  |  | 187 | 5.62 |  |  | 314 |  | 0.85 | 32.1 | 43 | 50.1 | 7.4 | 25 to 50 | < 1 | half-life at […], 1 µM [3]: 4.4 min
5 | C[C@H](c1ccc(C(F)(F)F)cc1C(F)(F)F)n1cc(NC(=O)c2cc(-c3cnccn3)on2)cn1 [Compound 131, (R)—N-(1-(1-(2,4-bis(trifluoromethyl)phenyl)ethyl)-1H-pyrazol-4-yl)-5-(pyrazin-2-yl)isoxazole-3-carboxamide] |  | > 50 | 16.4 | > 50 | > 50 | 44.5 | 43.3 |  |  | > 50 | < 1 |  |  |  |  |  |  |  |  |  | AUCExtr [%] ([5]; Balb/c): 7.75%; F [%] ([5]; Balb/c): 85.9%; Vz ([5]; Balb/c): 0.831 L/kg; Last time point for AUClast [5]: 24 h; AUC(0-inf) (in vivo): 107 µg·h/mL; AUC(0-t) (in vivo): 98.7 µg·h/mL; Cmax (in vivo): 7030 ng/mL; Tmax (in vivo): 360 min; half-life (in vivo): 370 min
6 | O=C(Nc1cnn(Cc2ccc(C(F)(F)F)cc2C(F)(F)F)c1)c1cc(-c2ncccn2)on1 [Compound 129, N-(1-(2,4-bis(trifluoromethyl)benzyl)-1H-pyrazol-4-yl)-5-(pyrimidin-2-yl)isoxazole-3-carboxamide] |  | > 50 | > 50 | > 50 | > 50 | > 50 | > 50 |  | 67.9 | > 50 | < 1 | 12 |  | 84.5 | 63.2 |  | 68.0 | 62.6 |  |  | microsomal CLint at 1 μM [2, 7]: 22 µL/min/mg; half-life at […], 1 µM [3]: 114 min; microsomal CLint at 1 μM [4, 11]: 22 µL/min/mg
